{"source": "patent US7112579B2", "about": "“26,27-Homologated-20-EPI-2-alkyl-19-nor-vitamin D compounds” (Wisconsin Alumni Research Foundation, priority 1997, dated 2006)", "key": {"[1]": {"system": "human promyelocyte HL-60 cells", "test": "Differentiation of HL-60 promyelocytes into monocytes (NBT reduction)", "assay_type": "cell-based", "details": "for induction of differentiation of HL-60 cells to monocytes, in words: FIGS. 2, 4, 6, comparison in words; for HL-60 Differentiation ED50: concentration inducing 50% maturation (NBT)", "from_the_text": "In the next assay, the cellular activity of the synthesized compounds was established by studying their ability to induce differentiation of human promyelocyte HL-60 cells into monocytes."}, "[2]": {"system": "intestinal calcium transport", "test": "Intestinal calcium transport (everted sac), chronic doses 7 days i.p., vitamin D-deficient rats", "assay_type": "in vivo, rat", "details": "for intestinal calcium transport activity, in words: chronic 7 days, 130 and/or 260 pmol/day", "procedure": "(§1) Male weanling rats were obtained from Sprague Dawley Co. (Indianapolis, Ind.) and fed a 0.47% calcium, 0.3% phosphorus vitamin D-deficient diet for 1 week and then given the same diet containing 0.02% calcium, 0.3% phosphorus for 2 weeks. During the last week they were given the indicated dose of compound by intraperitoneal injection in 0.1 ml 95% propylene glycol and 5% ethanol each day for 7 days. The control animals received only the 0.1 ml of 95% propylene glycol, 5% ethanol. Twenty-four hours after the last dose, the rats were sacrificed and intestinal calcium transport was determined by everted sac technique as previously described and serum calcium determined by atomic absorption spectrometry on a model 3110 Perkin Elmer instrument (Norwalk, Conn.). There were 5 rats per group and the values represent mean±SEM.\nas §1, with “With respect to the data in Tables 3 and 4, male” for “Male”, “atormic” for “atomic”"}, "[3]": {"system": "serum calcium (bone calcium mobilization)", "test": "Serum calcium (bone calcium mobilization), chronic doses 7 days i.p., vitamin D-deficient rats", "assay_type": "in vivo, rat", "details": "for bone calcium mobilization (serum calcium) activity, in words: chronic 7 days, 130 and/or 260 pmol/day", "procedure": "as §1\nas §1, with “With respect to the data in Tables 3 and 4, male” for “Male”, “atormic” for “atomic”"}, "[4]": {"system": "intestinal calcium transport", "test": "Intestinal calcium transport after a single intrajugular dose, vitamin D-deficient rats", "assay_type": "in vivo, rat", "details": "Table 2, single intrajugular dose 650 pmol, 24 h, mean±SEM", "procedure": "(§2) Male Holtzman strain weanling rats were obtained from the Sprague Dawley Co. (Indianapolis, Ind.) and fed the 0.47% calcium, 0.3% phosphorus diet described by Suda et al. (J. Nutr. 100, 1049–1052, 1970) for 1 week and then fed the same diet containing 0.02% calcium and 0.3% phosphorus for 2 additional weeks. At this point, they received a single intrajugular injection of the indicated dose dissolved in 0.1 ml of 95% propylene glycol/5% ethanol. Twenty-four hours later they were sacrificed and intestinal calcium transport and serum calcium were determined as described in Table 1. The dose of the compounds was 650 pmol and there were 5 animals per group. The data are expressed as mean±SEM."}, "[5]": {"system": "serum calcium (bone calcium mobilization)", "test": "Serum calcium (bone calcium mobilization) after a single intrajugular dose, vitamin D-deficient rats", "assay_type": "in vivo, rat", "details": "Table 2, single intrajugular dose 650 pmol, 24 h, mean±SEM", "procedure": "as §2"}, "[6]": {"system": "intestinal calcium transport", "test": "Support of intestinal calcium transport in vitamin D-deficient rats on a low-calcium diet (3 weeks), 7 daily i.p. doses", "assay_type": "in vivo, rat"}, "[7]": {"system": "bone calcium mobilization (serum Ca)", "test": "Bone calcium mobilization (serum Ca) in vitamin D-deficient rats on a low-calcium diet (3 weeks), 7 daily i.p. doses", "assay_type": "in vivo, rat"}, "[8]": {"biological_target": "T1, porcine intestinal vitamin D receptor (Sus scrofa, UniProt A3RGC1)", "T1 construct": "from tissue; host or cells: porcine intestine", "T1 sequence (A3RGC1 1-427)": "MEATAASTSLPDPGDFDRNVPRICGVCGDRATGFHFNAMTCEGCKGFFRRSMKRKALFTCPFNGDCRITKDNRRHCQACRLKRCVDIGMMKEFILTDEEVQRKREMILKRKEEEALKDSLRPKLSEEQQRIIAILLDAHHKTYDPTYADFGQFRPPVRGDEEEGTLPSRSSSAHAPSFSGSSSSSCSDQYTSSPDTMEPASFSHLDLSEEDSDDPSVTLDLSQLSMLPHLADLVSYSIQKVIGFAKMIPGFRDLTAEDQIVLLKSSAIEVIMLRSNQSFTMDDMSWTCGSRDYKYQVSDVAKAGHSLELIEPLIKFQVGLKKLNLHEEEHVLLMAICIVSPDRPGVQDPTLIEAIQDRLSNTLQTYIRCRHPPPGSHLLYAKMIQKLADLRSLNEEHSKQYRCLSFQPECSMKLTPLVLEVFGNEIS", "test": "Competitive binding to the porcine intestinal vitamin D receptor ([3H]-1,25-(OH)2-D3 displacement)", "parameters": "species or system pig", "details": "Table 8"}, "[9]": {"details": "Table 1, 130 pmol/day/7 days i.p., mean±SEM, 5 rats"}, "[10]": {"details": "Table 1, 260 pmol/day/7 days i.p., mean±SEM, 5 rats"}, "[11]": {"details": "listed as α and β isomers of 2-methyl-19-nor-1,25-(OH)2D3"}, "[12]": {"details": "listed as 2-Methyl (α and β mixture)-19-Nor-1,25-(OH)2D3"}, "[13]": {"details": "listed as 2-Methyl (α and β mixture)-19-Nor-20S-1,25-(OH)2D3"}, "[14]": {"details": "Table 4, 260 pmol/day/7 days i.p., mean±SEM"}, "[15]": {"details": "Table 5, 260 pmol/day/7 days i.p."}, "[16]": {"details": "Table 7 panel 1, 260 pmol daily x 7 i.p."}, "[17]": {"details": "Table 7 panel 2, 260 pmol daily x 7 i.p."}, "[18]": {"details": "Table 9 panel 1, 260 pmol daily x 7 i.p."}, "[19]": {"details": "Table 9 panel 2, 260 pmol daily x 7 i.p."}, "[20]": {"details": "Table 9 panel 2, 65 pmol daily x 7 i.p."}}, "note": "Where “and” joins values, the source holds several entries; their conditions need not be identical. Equal entries are not always repeated. Marks after values point to notes of the source that are not given here."}
{"compound": "CC(CCCC(C)(C)O)C1CCC2C(=CC=C3CC(O)C(C)C(O)C3)CCCC21C", "note": "(mixture of isomers) [2-Methyl (α and β) 19-Nor-1,25-(OH)2D3, mixture of 2α and 2β-methyl-19-nor-1α,25-dihydroxyvitamin D3]", "values": [{"measurement": "induction of differentiation of HL-60 cells to monocytes, in words", "setting": "[1]", "value": "activity similar to 1,25-(OH)2D3"}, {"measurement": "Intestinal Calcium Transport (S/M)", "setting": "[2]; [9]", "value": "5.0 ± 0.3", "unit": "S/M"}, {"measurement": "Intestinal Calcium Transport (S/M)", "setting": "[2]; [10]", "value": "5.3 ± 0.6", "unit": "S/M"}, {"measurement": "intestinal calcium transport activity, in words", "setting": "[2]; [11]", "value": "no intestinal calcium transport activity"}, {"measurement": "Serum Calcium", "setting": "[3]; [9]", "value": "6.1 ± 0.1", "unit": "mg/100 ml"}, {"measurement": "Serum Calcium", "setting": "[3]; [10]", "value": "6.7 ± 0.4", "unit": "mg/100 ml"}, {"measurement": "bone calcium mobilization (serum calcium) activity, in words", "setting": "[3]; [11]", "value": "strong bone calcium mobilization at both dose levels"}, {"measurement": "Intestinal Calcium Transport (S/M)", "setting": "[4]; [12]", "value": "3.6 ± 0.4", "unit": "S/M"}, {"measurement": "Serum Calcium", "setting": "[5]; [12]", "value": "5.4 ± 0.1", "unit": "mg/100 ml"}]}
{"compound": "CC(CCCC(C)(C)O)C1CCC2C(=CC=C3CC(O)C(C)C(O)C3)CCCC21C", "note": "(mixture of isomers) [2-Methyl (α and β) 19-Nor-20S-1,25-(OH)2D3] [mixture of 2α and 2β-methyl-19-nor-20S-1α,25-dihydroxyvitamin D3]", "values": [{"measurement": "induction of differentiation of HL-60 cells to monocytes, in words", "setting": "[1]; listed as α and β derivatives of 2-methyl-19-nor-20S-1,25-(OH)2D3", "value": "extremely potent"}, {"measurement": "Intestinal Calcium Transport (S/M)", "setting": "[2]; [9]", "value": "5.0 ± 0.9", "unit": "S/M"}, {"measurement": "Intestinal Calcium Transport (S/M)", "setting": "[2]; [10]", "value": "6.9 ± 0.5", "unit": "S/M"}, {"measurement": "intestinal calcium transport activity, in words", "setting": "[2]", "value": "no significant change in intestinal calcium transport at 130 pmol dose level"}, {"measurement": "Serum Calcium", "setting": "[3]; [9]", "value": "9.6 ± 0.1", "unit": "mg/100 ml"}, {"measurement": "Serum Calcium", "setting": "[3]; Table 1, 130 pmol/day/7 days i.p., mean±SEM, 5 rats, listed as 2-methyl-(α and β)-19-nor-20S-1,25-(OH)2D3", "value": 9.6, "unit": "mg/100 ml"}, {"measurement": "Serum Calcium", "setting": "[3]; [10]", "value": "12.2 ± 0.3", "unit": "mg/100 ml"}, {"measurement": "Serum Calcium", "setting": "[3]; Table 1, 260 pmol/day/7 days i.p., mean±SEM, 5 rats, listed as 2-methyl-(α and β)-19-nor-20S-1,25-(OH)2D3", "value": 12.2, "unit": "mg/100 ml"}, {"measurement": "bone calcium mobilization (serum calcium) activity, in words", "setting": "[3]", "value": "much higher than that of the native hormone"}, {"measurement": "Intestinal Calcium Transport (S/M)", "setting": "[4]; [13]", "value": "6.7 ± 0.6", "unit": "S/M"}, {"measurement": "Serum Calcium", "setting": "[5]; [13]", "value": "8.1 ± 0.3", "unit": "mg/100 ml"}]}
{"compound": "C=C1/C(=C\\C=C2/CCC[C@]3(C)[C@@H]([C@H](C)CCCC(C)(C)O)CC[C@@H]23)C[C@@H](O)C[C@@H]1O", "note": "[1α,25-(OH)2D3, 1α,25-dihydroxyvitamin D3, reference compound]", "values": [{"measurement": "HL-60 Differentiation ED50", "setting": "[1]; Table 6", "value": 4, "unit": "nM"}, {"measurement": "HL-60 Differentiation ED50", "setting": "[1]; Table 8", "value": 4, "unit": "nM"}, {"measurement": "Intestinal Calcium Transport (S/M)", "setting": "[2]; [10]", "value": "6.2 ± 0.4", "unit": "S/M"}, {"measurement": "Intestinal Calcium Transport (S/M)", "setting": "[2]; Table 3, 260 pmol/day/7 days i.p., mean±SEM", "value": "4.6 ± 0.2", "unit": "S/M"}, {"measurement": "Intestinal Calcium Transport (S/M)", "setting": "[2]; [14]", "value": "5.6 ± 1.3", "unit": "S/M"}, {"measurement": "Intestinal Calcium Transport (S/M)", "setting": "[2]; [15]", "value": "6.6 ± 0.5", "unit": "S/M"}, {"measurement": "Serum Calcium", "setting": "[3]; Table 1, 260 pmol/day/7 days i.p., mean±SEM, 5 rats, listed as 1,25-(OH)2D3", "value": "7.2 mg/100 ml and 7.2 ± 0.5 mg/100 ml"}, {"measurement": "Serum Calcium", "setting": "[3]; Table 3, 260 pmol/day/7 days i.p., mean±SEM, listed as 1,25-(OH)2D3", "value": "6.6±0.4", "unit": "mg/100 ml"}, {"measurement": "Serum Calcium", "setting": "[3]; [14]", "value": "6.1 ± 0.5", "unit": "mg/100 ml"}, {"measurement": "Serum Calcium", "setting": "[3]; [15]", "value": "5.2 ± 0.1", "unit": "mg/100 ml"}, {"measurement": "Intestinal Calcium Transport (S/M)", "setting": "[4]", "value": "5.8 ± 0.3", "unit": "S/M"}, {"measurement": "Serum Calcium", "setting": "[5]", "value": "5.7 ± 0.2", "unit": "mg/100 ml"}, {"measurement": "Ca Transport S/M (mean ± SEM)", "setting": "[6]; [16]", "value": "7.2 ± 0.6^c S/M"}, {"measurement": "Ca Transport S/M (mean ± SEM)", "setting": "[6]; [17]", "value": "5.0 ± 0.4^c S/M"}, {"measurement": "Ca Transport S/M (mean ± SEM)", "setting": "[6]; [18]", "value": "7.2 ± 0.6^c S/M"}, {"measurement": "Ca Transport S/M (mean ± SEM)", "setting": "[6]; [19]", "value": "5.0 ± 0.4^c S/M"}, {"measurement": "Serum Ca (mean ± SEM)", "setting": "[7]; [16]", "value": "5.6 ± 0.2^c"}, {"measurement": "Serum Ca (mean ± SEM)", "setting": "[7]; [17]", "value": "6.3 ± 0.2^c"}, {"measurement": "Serum Ca (mean ± SEM)", "setting": "[7]; [18]", "value": "5.6 ± 0.2^c"}, {"measurement": "Serum Ca (mean ± SEM)", "setting": "[7]; [19]", "value": "6.3 ± 0.2^c"}]}
{"compound": "CC1[C@H](O)CC(=C/C=C2\\CCC[C@@]3(C)C2CCC3[C@@H](C)CCCC2(O)CCCC2)C[C@H]1O", "note": "(stereo partly drawn) [Compound 49, 20(S)-1α,25-Dihydroxy-26,27-dimethylene-2β-methyl-19-norvitamin D3]", "values": [{"measurement": "VDR Binding ratio", "setting": "[8]; analog average ED50 / ED50 for 1α,25-(OH)2D3", "value": 2.6}, {"measurement": "EC50", "setting": "[8]; concentration for 50% displacement of radiolabeled 1α,25-(OH)2D3, read-out: VDR Binding ED50", "value": 2.3, "unit": "nM"}, {"measurement": "HL-60 Differentiation Activity ratio", "setting": "[1]; Table 8, analog average ED50 / ED50 for 1α,25-(OH)2D3", "value": 0.08}, {"measurement": "HL-60 Differentiation ED50", "setting": "[1]; Table 8", "value": 0.32, "unit": "nM"}, {"measurement": "Ca Transport S/M (mean ± SEM)", "setting": "[6]; [20]", "value": "4.9 ± 0.6^d^1 S/M"}, {"measurement": "Ca Transport S/M (mean ± SEM)", "setting": "[6]; [19]", "value": "5.4 ± 0.7^d^2 S/M"}, {"measurement": "Serum Ca (mean ± SEM)", "setting": "[7]; [20]", "value": "5.8 ± 0.2^d^1"}, {"measurement": "Serum Ca (mean ± SEM)", "setting": "[7]; [19]", "value": "9.5 ± 0.1^d^2"}]}
